In article PMC7127646 (Bioorganic & Medicinal Chemistry Letters, 2009):

How the values were obtained:
SARS-CoV helicase [1] = biological target: T1, SARS-CoV helicase (Severe acute respiratory syndrome coronavirus, UniProt P0C6X7); type: biochemical
SARS-CoV helicase [2] = biological target: T1, SARS-CoV helicase; type: biochemical; remark: listed apart in the source

O=c1c(O)c(-c2ccc3c(c2)OCO3)oc2cc(O)cc(O)c12 [Compound 3b, 2-Benzo[1,3]dioxol-5-yl-3,5,7-trihydroxy-chromen-4-one]
inhibition of duplex DNA-unwinding activity (in words) (SARS-CoV helicase [1]): failed to show any inhibition | inhibition of helicase ATPase activity (in words) (SARS-CoV helicase [2]): failed to show any inhibition
